# Where a SMILES comes first, the peptide text is derived from it. Bridges are numbered along the chain shown (N, C = ends). [ ]: non-standard residue; d: D form. 2Nal = N[C@@H](Cc1ccc2ccccc2c1)C(=O)O; d2Nal = N[C@H](Cc1ccc2ccccc2c1)C(=O)O
# Columns and labels:
# [1] = target: T1, benzodiazepine-peripheral receptor (Rattus norvegicus, UniProt P16257); assay: Peripheral benzodiazepine membrane receptor assay; type: binding; conditions: at 1 µM
# T1 construct: rat cerebral cortex (CCKB, PYY, neurotensin, ∝1-adrenergic, ∝2-adrenergic, muscarinic cholinergic, neural benzodiazepine, peripheral benzodiazepine); from tissue; host or cells: rat cerebral cortex membranes
# [2] = target: T2, NMB receptors on rat olfactory bulb membranes (Rattus norvegicus, UniProt P24053); assay: NMB membrane receptor assay (rat olfactory bulb membranes); type: binding
# T2 construct: Membranes were prepared from rat olfactory bulb (NMB membrane receptor assay); from tissue; host or cells: rat olfactory bulb membranes
# T2 sequence (P24053 1-390): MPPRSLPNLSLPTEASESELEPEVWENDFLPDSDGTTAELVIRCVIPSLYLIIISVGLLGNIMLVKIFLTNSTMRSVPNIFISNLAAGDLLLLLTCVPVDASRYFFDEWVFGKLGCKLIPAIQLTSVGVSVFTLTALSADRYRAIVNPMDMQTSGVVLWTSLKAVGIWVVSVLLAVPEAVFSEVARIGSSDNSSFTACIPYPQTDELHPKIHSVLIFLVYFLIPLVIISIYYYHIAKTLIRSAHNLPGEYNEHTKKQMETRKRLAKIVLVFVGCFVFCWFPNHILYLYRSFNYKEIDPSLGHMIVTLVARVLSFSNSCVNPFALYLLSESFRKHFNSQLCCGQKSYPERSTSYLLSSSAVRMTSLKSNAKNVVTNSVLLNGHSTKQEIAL
# α1- adrenergic = assay: alpha1-adrenergic membrane receptor assay; type: binding, rat; conditions: at 1 µM
# α2- adrenergic = assay: alpha2-adrenergic membrane receptor assay; type: binding, rat; conditions: at 1 µM
# [3] = target: T3, NMB receptors on C-6 glioblastoma cells (Rattus norvegicus, UniProt P24053); assay: NMB-stimulated [3H]IP in C-6 glioblastoma cells; type: cell-based
# T3 construct: endogenous in cells; host or cells: rat glioblastoma C-6 cells
# T3 sequence (P24053 1-390): T2 sequence (P24053 1-390)
# Procedure: Total phosphoinositides in C-6 cells and in NMB-R transfected cells were determined as described previously, with minor modifications [Benya, R. V. et al. Mol. Pharmacol. 42:1058 (1992); and Wang, L-H. et al. Biochem. J. 286:641 (1992)]. Cells were grown to confluence in 24-well plates and then loaded with 100 µCi/ml myo-[2-^3H]inositol in Dulbecco's modified essential medium with 2% fetal bovine serum at 37°C for 48 hrs. Cells were washed and incubated in phosphoinositide buffer (standard buffer additionally containing 10 mM LiCl, 20 mM HEPES, 2 mM CaCl2, 2% BSA, and 1.2 mM MgSO4) for 15 min and then […] Reactions were halted using ice-cold 1% HCl in methanol, and the inositol phosphates (IP) were isolated as described previously [Bologna, M. et al. Cancer 63:1714 (1989); and Endo, T. et al. J. Endocrinol. 131:313 (1991)]. Briefly, after loading of the anion exchange column, free [^3H]glycerophosphorylinositol was removed by washing with 5 mM disodium tetraborate in 60 mM sodium formate. Total [^3H]inositol phosphates were then eluted using 100 mM formic acid in 1.0 M ammonium formate as described previously [Benya, R. V. et al. Mol. Pharmacol. 42:1058 (1992); and Wang, L-H. et al. Biochem. J. 286:641 (1992)].
# rat NMB receptor = target: T4, rat NMB receptor (Rattus norvegicus, UniProt P24053); assay: Binding of 125I-[D-Tyr0]NMB to NMB-R transfected BALB 3T3 cells; conditions: for fold greater affinity for the NMB than the GRP receptors: NMB-R transfected cells versus GRP receptors on rat pancreatic acini
# T4 construct: a full length NMB-preferring bombesin receptor clone generated from rat esophagus; expressed in transfected cells; host or cells: BALB 3T3 cells
# T4 sequence (P24053 1-390): T2 sequence (P24053 1-390)
# histamine H1 = target: T5, histamine H1 (Cavia porcellus, UniProt P31389); assay: histamine H1 membrane receptor assay; type: binding, guinea pig; conditions: at 1 µM
# T5 construct: guinea pig cerebral (N1, histamine H1, and sigma opioid membrane receptor assays); from tissue; host or cells: guinea pig cerebral membranes
# benzodiazepine-neural = assay: Neural benzodiazepine membrane receptor assay; type: binding, rat; conditions: at 1 µM
# PYY receptor = assay: PYY membrane receptor assay; type: binding, rat; conditions: at 1 µM
# T5 sequence (P31389 whole entry): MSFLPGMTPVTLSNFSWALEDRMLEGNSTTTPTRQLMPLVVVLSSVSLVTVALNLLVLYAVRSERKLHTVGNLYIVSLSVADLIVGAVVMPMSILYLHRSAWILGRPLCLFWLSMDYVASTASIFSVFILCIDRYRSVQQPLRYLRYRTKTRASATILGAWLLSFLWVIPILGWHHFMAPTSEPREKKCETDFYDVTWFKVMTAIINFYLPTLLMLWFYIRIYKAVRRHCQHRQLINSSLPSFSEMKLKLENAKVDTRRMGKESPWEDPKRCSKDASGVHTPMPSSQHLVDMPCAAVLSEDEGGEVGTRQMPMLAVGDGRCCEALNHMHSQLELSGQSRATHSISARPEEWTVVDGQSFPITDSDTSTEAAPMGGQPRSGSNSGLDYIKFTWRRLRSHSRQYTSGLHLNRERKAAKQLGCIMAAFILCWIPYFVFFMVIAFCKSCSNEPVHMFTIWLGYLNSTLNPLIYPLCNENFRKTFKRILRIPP
# T1 sequence (P16257 whole entry): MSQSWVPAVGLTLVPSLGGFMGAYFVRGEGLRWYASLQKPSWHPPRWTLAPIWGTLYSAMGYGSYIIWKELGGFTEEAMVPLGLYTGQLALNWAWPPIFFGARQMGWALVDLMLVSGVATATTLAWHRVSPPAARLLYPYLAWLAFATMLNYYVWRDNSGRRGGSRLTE
compound,measurement,setting,value
"CC(C)[C@@H]1NC(=O)[C@H](CCCCN)NC(=O)[C@@H](Cc2c[nH]c3ccccc23)NC(=O)[C@H](Cc2ccc(O)cc2)NC(=O)[C@@H](NC(=O)[C@H](N)Cc2ccc3ccccc3c2)CSSC[C@@H](C(=O)N[C@@H](Cc2ccc3ccccc3c2)C(N)=O)NC1=O [Analog #1, D-Nal-Cys-Tyr-D-Trp-Lys-Val-Cys-Nal-NH2] (H-[d2Nal]CY[dW]KVC[2Nal]-NH2; disulfide 2-7; N-terminus assumed)",inhibition of binding to benzodiazepine peripheral,[1],did not inhibit binding
same,inhibition at 1 µM,"[2]; at 1 µM, read-out: inhibition of binding to NMB receptors on rat olfactory bulb membranes",> 95%
same,fold greater affinity for NMB receptors than mu opioid receptors,[2]; rat olfactory bulb versus rat forebrain membranes (Table 4),10 fold
same,inhibition of binding to α1- adrenergic,α1- adrenergic,did not inhibit binding
same,inhibition of binding to α2- adrenergic,α2- adrenergic,did not inhibit binding
same,"[^3H]IP, Peptide Added NMB (10 nM)","[3]; C-6 glioblastoma cells, analog 10 µM plus NMB 10 nM",7.5 ± 1.0 dpm x 10^3
same,"[^3H]IP, Peptide Added None","[3]; C-6 glioblastoma cells, analog 10 µM, no agonist, control 7.2±1.0",7.4 ± 1.3 dpm x 10^3
same,effect on NMB-stimulated increases in [^3H]IP in C-6 glioblastoma cells,[3]; Table 3,inhibited
same,complete inhibition of binding of ^125I-[Tyr^0]NMB at,rat NMB receptor; NMB-R transfected cells,3 µM
same,fold greater affinity for the NMB than the GRP receptors,rat NMB receptor,84 fold
same,fold greater affinity for the NMB than the GRP receptors,rat NMB receptor; listed as cyclo SS-octa,100 fold
same,detectible inhibition of binding of ^125I-[Tyr^0]NMB at,"rat NMB receptor; NMB-R transfected cells, lowest concentration with detectable inhibition",0.1 µM
same,inhibition of binding to histamine H1,histamine H1,did not inhibit binding
same,inhibition of binding to benzodiazepine-neural,benzodiazepine-neural,did not inhibit binding
same,inhibition of binding to PYY,PYY receptor,did not inhibit binding

# Source: patent publication EP0606463B1, “NEUROMEDIN B RECEPTOR ANTAGONISTS” (The Administrators of The Tulane Educational Fund, priority 1992, dated 1994)
